Results taken from patent publication US8722849B2, “Polypeptides” (Novo Nordisk A/S, priority 2011, dated 2014).
pEC50: −log10 of the molar value. Where two headings read alike, the source gives them in different places. Starred links: 1 amine or outer side, 2 acyl side, 3 side chain; linkers in the order of their positions; H or OH if unused. Positions of bridges follow the written chain, without caps; N, C: chain ends. Residues, ends and D or L forms follow the SMILES beside them. *: point of attachment. C20 diacid = O=C(O)CCCCCCCCCCCCCCCCCCC(=O)*; C18 diacid = O=C(O)CCCCCCCCCCCCCCCCC(=O)*; γGlu = O=C(O)[C@H](CCC(=O)[*:2])N[*:1]

Tests used:
[1] = Assay (III) ThT fibrillation assay for physical stability; type: physicochemical
Summary of the method: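 Freshly prepared formulations, pH-adjusted, with 1 μM ThT; four or eight replicates incubated at 37 °C under 960 rpm orbital shaking. Fluorescence (ex 444/em 485 nm) read every 20 min; […]. Peptide concentration measured by RP-HPLC before and after the run.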

[2] = Assay (IV) determination of solubility; type: physicochemical
Summary of the method: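 Eight 100 mM buffers (glycylglycine pH 3.0–5.0, bistrispropane pH 6.0–8.0) each received an equal volume of polypeptide dissolved in water at ~500 nmol/ml. Soluble polypeptide was measured by HPLC following 18 hours at room temperature and centrifugation.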

[3] = molecular target: T1, rat amylin 3(a) receptor (rat calcitonin(a) receptor + rat RAMP3) (Rattus norvegicus, UniProt P32214+Q9JJ73); assay: Assay (II)b functional cAMP FlashPlate assay, rat amylin receptor; type: cell-based; settings: Table 11
T1 construct: expressed in transfected cells; host or cells: BHK tk'ts 13
T1 sequence (P32214 25-479 isoform P32214-2 limits assumed): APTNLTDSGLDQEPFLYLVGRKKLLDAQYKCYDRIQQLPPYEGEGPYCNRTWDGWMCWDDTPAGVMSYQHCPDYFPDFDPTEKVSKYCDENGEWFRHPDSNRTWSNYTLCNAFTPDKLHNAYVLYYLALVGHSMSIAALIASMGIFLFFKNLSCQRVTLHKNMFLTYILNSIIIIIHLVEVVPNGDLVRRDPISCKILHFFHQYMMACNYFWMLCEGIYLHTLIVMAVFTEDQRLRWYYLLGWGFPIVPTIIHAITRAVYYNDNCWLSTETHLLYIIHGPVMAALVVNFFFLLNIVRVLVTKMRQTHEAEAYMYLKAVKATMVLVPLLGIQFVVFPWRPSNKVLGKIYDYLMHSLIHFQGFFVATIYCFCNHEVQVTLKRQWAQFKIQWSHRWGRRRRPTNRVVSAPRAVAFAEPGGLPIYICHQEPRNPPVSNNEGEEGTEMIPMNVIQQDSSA
T1 sequence (Q9JJ73 23-147 partner): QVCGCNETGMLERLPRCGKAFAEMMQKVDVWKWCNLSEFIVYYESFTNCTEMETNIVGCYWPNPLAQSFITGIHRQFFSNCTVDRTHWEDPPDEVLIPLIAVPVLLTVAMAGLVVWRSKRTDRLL
Summary of the method: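 cAMP accumulation in transiently transfected BHK tk'ts 13 cells, 100.000 cells/well, expressing rat calcitonin(a) receptor or its RAMP3 co-expression form (amylin 3(a)): 30 min stimulation with IBMX, 24 hours post-transfection. Readout by competition of cellular versus radiolabelled cAMP in FlashPlates, scintillation counted after 3 h.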

[4] = bistrispropane buffer, pH 6, pH 6.0, read-out: Solubility pH 6.0
[5] = bistrispropane buffer, pH 6.5, pH 6.5, read-out: Solubility pH 6.5
[6] = bistrispropane buffer, pH 7, pH 7.0, 18 hours at room temperature, Table 3, read-out: Solubility pH 7.0
[7] = bistrispropane buffer, pH 7, pH 7.0, Table 8, read-out: Solubility pH 7.0
[8] = bistrispropane buffer, pH 7, pH 7.0, Table 9, read-out: Solubility pH 7.0
[9] = bistrispropane buffer, pH 7, pH 7.0, read-out: Solubility pH 7.0
[10] = bistrispropane buffer, pH 7.5, pH 7.5, Table 9, read-out: Solubility pH 7.5
[11] = bistrispropane buffer, pH 7.5, pH 7.5, read-out: Solubility pH 7.5
[12] = bistrispropane buffer, pH 8, pH 8.0, read-out: Solubility pH 8.0
[13] = glycylglycine buffer, pH 3, pH 3.0, read-out: Solubility pH 3.0
[14] = glycylglycine buffer, pH 4, pH 4.0, 18 hours at room temperature, Table 2, read-out: Solubility pH 4.0
[15] = glycylglycine buffer, pH 4, pH 4.0, read-out: Solubility pH 4.0
[16] = glycylglycine buffer, pH 5, pH 5.0, read-out: Solubility pH 5.0

In the case of `CC[C@H](C)[C@H](NC(=O)[C@@H]1CCCN1C(=O)CNC(=O)[C@H](Cc1ccccc1)NC(=O)[C@H](CC(N)=O)NC(=O)[C@H](CC(N)=O)NC(=O)[C@H](CO)NC(=O)[C@H](CO)NC(=O)[C@H](Cc1c[nH]cn1)NC(=O)[C@H](CCCNC(=N)N)NC(=O)[C@H](CC(C)C)NC(=O)[C@H](Cc1ccccc1)NC(=O)[C@H](CCC(=O)O)NC(=O)[C@H](C)NC(=O)[C@H](CC(C)C)NC(=O)[C@H](CCCNC(=N)N)NC(=O)[C@H](CCC(N)=O)NC(=O)[C@@H](NC(=O)[C@H](C)NC(=O)[C@@H]1CSSC[C@H](NC(=O)[C@H](CCCCN)NC(=O)[C@H](CCC(=O)O)NC(=O)CC[C@H](NC(=O)CCCCCCCCCCCCCCCCCCC(=O)O)C(=O)O)C(=O)N[C@@H](CC(N)=O)C(=O)N[C@@H]([C@@H](C)O)C(=O)N[C@@H](C)C(=O)N[C@@H]([C@@H](C)O)C(=O)N1)[C@@H](C)O)C(=O)N[C@@H](CC(C)C)C(=O)N1CCC[C@H]1C(=O)N1CCC[C@H]1C(=O)N[C@H](C(=O)N[C@@H](CC(N)=O)C(=O)N[C@H](C(=O)NCC(=O)N[C@@H](CO)C(=O)N[C@@H](Cc1c[nH]cn1)C(=O)N[C@H](C(=O)N[C@@H](Cc1ccc(O)cc1)C(N)=O)[C@@H](C)O)C(C)C)[C@@H](C)O` [Example 58, N-alpha-[(S)-4-Carboxy-4-(19-carboxynonadecanoylamino)butyryl]-Glu-[Glu14,Arg17,His35]-pramlintide] ({C20 diacid-γGlu}-EKCNTATCATQRLAEFLRHSSNNFGPILPPTNVGSHTY-NH2; disulfide 3-8 (inferred); C-terminus assumed), the “ThT pH 4.0 lag time” value ([1]; Table 8) was >45 h, the “ThT pH 4.0 lag time” value ([1]; Table 9) was >45 h and the “ThT pH 4.0 lag time” value ([1]; ThT fibrillation assay) was >45 h. The “ThT pH 4.0 lag time (h)” value ([1]; ThT fibrillation assay) was >45 h, the solubility at 18 h [2, 4] was > 200 µM and the solubility at 18 h [2, 5] was > 200 µM. The solubility at 18 h [2, 6] was > 200 µM, the solubility at 18 h [2, 7] was > 200 µM and the solubility at 18 h [2, 8] was > 200 µM. For the same molecule, the solubility at 18 h [2, 9] was > 200 µM, the solubility at 18 h [2, 10] was > 200 µM and the solubility at 18 h [2, 11] was > 200 µM. The solubility at 18 h [2, 12] was > 200 µM, the solubility at 18 h [2, 13] was > 200 µM and the solubility at 18 h [2, 14] was > 200 µM. For the same molecule, the solubility at 18 h [2, 15] was > 200 µM, the solubility at 18 h [2, 16] was > 200 µM and the pEC50 [3] was 10.20.
For `CC[C@H](C)[C@H](NC(=O)[C@@H]1CCCN1C(=O)CNC(=O)[C@H](Cc1ccccc1)NC(=O)[C@H](CC(N)=O)NC(=O)[C@H](CC(N)=O)NC(=O)[C@H](CO)NC(=O)[C@H](CO)NC(=O)[C@H](Cc1c[nH]cn1)NC(=O)[C@H](Cc1c[nH]cn1)NC(=O)[C@H](CC(C)C)NC(=O)[C@H](Cc1ccccc1)NC(=O)[C@H](CCC(=O)O)NC(=O)[C@H](C)NC(=O)[C@H](CC(C)C)NC(=O)[C@H](CCCNC(=N)N)NC(=O)[C@H](CCC(N)=O)NC(=O)[C@@H](NC(=O)[C@H](C)NC(=O)[C@@H]1CSSC[C@H](NC(=O)[C@H](CCCCN)NC(=O)CC[C@H](NC(=O)CCCCCCCCCCCCCCCCC(=O)O)C(=O)O)C(=O)N[C@@H](CC(N)=O)C(=O)N[C@@H]([C@@H](C)O)C(=O)N[C@@H](C)C(=O)N[C@@H]([C@@H](C)O)C(=O)N1)[C@@H](C)O)C(=O)N[C@@H](CC(C)C)C(=O)N1CCC[C@H]1C(=O)N1CCC[C@H]1C(=O)N[C@H](C(=O)N[C@@H](CC(N)=O)C(=O)N[C@H](C(=O)NCC(=O)N[C@@H](CO)C(=O)N[C@@H](Cc1c[nH]cn1)C(=O)N[C@H](C(=O)N[C@@H](Cc1ccc(O)cc1)C(N)=O)[C@@H](C)O)C(C)C)[C@@H](C)O` [Example 59, N-alpha-[(S)-4-Carboxy-4-(17-carboxyheptadecanoylamino)butyryl]-[Glu14,His17,His35]-pramlintide] ({C18 diacid-γGlu}-KCNTATCATQRLAEFLHHSSNNFGPILPPTNVGSHTY-NH2; disulfide 2-7 (inferred)), the “ThT pH 4.0 lag time” value ([1]; Table 8) was >45 h, the “ThT pH 4.0 lag time” value ([1]; Table 9) was >45 h and the “ThT pH 4.0 lag time” value ([1]; ThT fibrillation assay) was >45 h. For the same molecule, the “ThT pH 4.0 lag time (h)” value ([1]; ThT fibrillation assay) was >45 h, the solubility at 18 h [2, 4] was > 200 µM and the solubility at 18 h [2, 5] was > 200 µM. For the same molecule, the solubility at 18 h [2, 6] was > 200 µM, the solubility at 18 h [2, 7] was > 200 µM and the solubility at 18 h [2, 8] was > 200 µM. For the same molecule, the solubility at 18 h [2, 9] was > 200 µM, the solubility at 18 h [2, 10] was > 200 µM and the solubility at 18 h [2, 11] was > 200 µM. The solubility at 18 h [2, 12] was > 200 µM, the solubility at 18 h [2, 13] was > 200 µM and the solubility at 18 h [2, 14] was > 200 µM. For the same molecule, the solubility at 18 h [2, 15] was > 200 µM, the solubility at 18 h [2, 16] was > 200 µM and the pEC50 [3] was 10.64.
